Drawing on ChEMBL document CHEMBL4680365, “Novel Oxopyrido[1,2-a]pyrimidine Compounds for Treating Bacterial Infection” (ACS Med Chem Lett, 2021), this text covers IC50 for 6 compounds.

One experiment deals with Escherichia coli. Briefly: Antibacterial activity against Escherichia coli BW25113 assessed as reduction in bacterial growth measured every 20 mins for 16 hrs by serial broth dilution method. In kind it is functional, organism-based. On the technique in general: In broth dilution the organism is exposed to a series of concentrations in liquid medium.
In another experiment the test system is Klebsiella pneumoniae. Briefly: Antibacterial activity against Klebsiella pneumoniae ATCC 10031 assessed as reduction in bacterial growth measured every 20 mins for 16 hrs by serial broth dilution method. In kind it is functional, organism-based.

On to `CNc1c(F)cc(F)c2c1[nH]c1ncc(-c3ccc4ncc(C(=O)O)c(=O)n4c3)c(N(C)C)c12`, for which the values for the IC50 in the experiment with Escherichia coli and in the experiment on Klebsiella pneumoniae were 497 nM and < 98 nM, respectively.

On to `CNc1cc(F)c(F)c2c1[nH]c1ncc(-c3cc(CN4CCOCC4)c4ncc(C(=O)O)c(=O)n4c3)c(N(C)C)c12`, for which the IC50 in the experiment with Escherichia coli was 523 nM; in the experiment on Klebsiella pneumoniae it was < 98 nM.

`CNc1cc(F)c(F)c2c1[nH]c1ncc(-c3cc(C)c4ncc(C(=O)O)c(=O)n4c3)c(N(C)C)c12`: the figures for the IC50 in the experiment with Escherichia coli and in the experiment with Klebsiella pneumoniae were 262 nM and < 98 nM, respectively.

In the case of `CNc1c(F)c(F)cc2c1[nH]c1ncc(-c3ccc4ncc(C(=O)O)c(=O)n4c3)c(N(C)C)c12`, the IC50 in the experiment on Escherichia coli was 442 nM; in the experiment with Klebsiella pneumoniae, < 98 nM.

On to `CNc1cc(F)c(F)c2c1[nH]c1ncc(-c3cc(CN(C)C)c4ncc(C(=O)O)c(=O)n4c3)c(N3CCCC3)c12`, for which the IC50 is 663 nM with Escherichia coli and < 98 nM in the experiment with Klebsiella pneumoniae.

As to `CNc1cc(F)c(Cl)c2c1[nH]c1ncc(-c3ccc4ncc(C(=O)O)c(=O)n4c3)c(N(C)C)c12`, the IC50 in the experiment with Escherichia coli is 458 nM; in the experiment with Klebsiella pneumoniae, < 98 nM.

By IC50 is commonly meant the midpoint of a concentration-inhibition curve.
